Read-outs that look alike come from different tables or passages of the source.
Columns and labels:
ITK = ITK (Homo sapiens (Human), UniProt Q08881); experiment: Omnia assay for potency assessment against active forms of ITK kinase; format: biochemical; settings: [ITK]=10 nM, [ATP]=25, [Y6-Sox]=10 μM; read-out: ITK Inhibition
Protocol: [ITK]=10 nM, [ATP]=25 [Y6-Sox]=10 μM (ATP KMapp=33 μM).

EGFR-WT = EGFR-WT (Homo sapiens (Human), UniProt P00533); experiment: Omnia assay for potency assessment against EGFR (WT)
BTK [1] = molecular target: T1, BTK (Homo sapiens (Human), UniProt Q06187); experiment: Omnia assay for potency assessment against BTK; format: biochemical; settings: [BTK]=5 nM, Omnia assay; read-out: BTK Inhibition (IC50)
Protocol: The modified BTK-optimized reagent conditions for the above protocol are:
[BTK]=5 nM, [ATP]=[…], [Y5-Sox]=[…] (ATP KMapp˜[…]).

BTK [2] = molecular target: T1, BTK; experiment: BTK Ramos cellular assay (PLCγ2 phosphorylation); format: cell-based; settings: Ramos cells, 1 hour compound, anti-IgM stimulation, p-PLCγ2; read-out: BTK Inhibition (IC50), BTK Ramos cellular inhibition
BMX = BMX (Homo sapiens (Human), UniProt P51813); experiment: Omnia assay for potency assessment against active forms of BMX kinase; format: biochemical; settings: [BMX]=2.5 nM, [ATP]=100 μM, [Y5-Sox]=7.5 μM; read-out: BMX Inhibition
Protocol: Briefly, 10× stocks of EGFR-WT (PV3872) from Invitrogen and EGFR-T790M/L858R (40350) from BPS Bioscience, San Diego, Calif., 1.13×ATP (AS001A) and appropriate Tyr-Sox conjugated peptide substrates (KCZ1001) were prepared in 1× kinase reaction buffer consisting of 20 mM Tris, pH 7.5, 5 mM MgCl2, 1 mM EGTA, 5 mM β-glycerophosphate, 5% glycerol (10× stock, KB002A) and 0.2 mM DTT (DS001A).
This example describes continuous-read kinase assays to measure inherent potency of compound against active forms of BMX enzymes as described in Example 251 above except that the modified BMX-optimized reagent conditions are:
[BMX]=2.5 nM, [ATP]=100 μM, [Y5-Sox]=7.5 μM (ATP KMapp=107 μM).

BTK [3] = molecular target: T1, BTK; experiment: Washout experiment with Ramos cells; format: cell-based; settings: 100 nM compound for 1 hour, then washout
Protocol: Ramos cells were serum starved for one hour in RPMI media+1% glutamine at 37° C. After starvation, Ramos cells were treated with 100 nM compound diluted in serum free RPMI media for 1 hour. After compound treatment, the media was removed and cells were washed with compound-free media. Subsequently, Ramos cells were washed every 2 hours and resuspended in fresh compound-free media. Cells were collected at specified timepoints, treated with 1 ug anti-human IgM (Southern Biotech cat #2022-01) for 10 minutes on ice to induce BCR signaling and then washed in PBS. Ramos cells were then lysed in Cell Extraction Buffer (Invitrogen FNN0011) supplemented with Roche complete protease inhibitor tablets (Roche 11697498001) and phosphatase inhibitors (Roche 04 906 837 001) and 18 ug total protein lysate was loaded in each lane. Inhibition of BTK kinase activity was assayed by measuring its substrate (PLCγ2) phosphorylation by western blot with phospho-specific antibodies from Cell Signaling Technologies cat #3871. The results of this experiment with compounds I-2, I-4 and I-7 are depicted in FIGS. 1, 2 and 3.

EGFR-T790M/L858R = EGFR-T790M/L858R (Homo sapiens (Human), UniProt P00533, L858R/T790M); experiment: Omnia assay for potency assessment against EGFR (T790M/L858R)
[4] = read-out: EGFR (wild type inhibition), EGFR wild type
[5] = read-out: EGFR (T790M/L858R), EGFR mutant T790M/L858R

Sequence of EGFR-T790M/L858R (P00533 25-1210 T790M/L858R): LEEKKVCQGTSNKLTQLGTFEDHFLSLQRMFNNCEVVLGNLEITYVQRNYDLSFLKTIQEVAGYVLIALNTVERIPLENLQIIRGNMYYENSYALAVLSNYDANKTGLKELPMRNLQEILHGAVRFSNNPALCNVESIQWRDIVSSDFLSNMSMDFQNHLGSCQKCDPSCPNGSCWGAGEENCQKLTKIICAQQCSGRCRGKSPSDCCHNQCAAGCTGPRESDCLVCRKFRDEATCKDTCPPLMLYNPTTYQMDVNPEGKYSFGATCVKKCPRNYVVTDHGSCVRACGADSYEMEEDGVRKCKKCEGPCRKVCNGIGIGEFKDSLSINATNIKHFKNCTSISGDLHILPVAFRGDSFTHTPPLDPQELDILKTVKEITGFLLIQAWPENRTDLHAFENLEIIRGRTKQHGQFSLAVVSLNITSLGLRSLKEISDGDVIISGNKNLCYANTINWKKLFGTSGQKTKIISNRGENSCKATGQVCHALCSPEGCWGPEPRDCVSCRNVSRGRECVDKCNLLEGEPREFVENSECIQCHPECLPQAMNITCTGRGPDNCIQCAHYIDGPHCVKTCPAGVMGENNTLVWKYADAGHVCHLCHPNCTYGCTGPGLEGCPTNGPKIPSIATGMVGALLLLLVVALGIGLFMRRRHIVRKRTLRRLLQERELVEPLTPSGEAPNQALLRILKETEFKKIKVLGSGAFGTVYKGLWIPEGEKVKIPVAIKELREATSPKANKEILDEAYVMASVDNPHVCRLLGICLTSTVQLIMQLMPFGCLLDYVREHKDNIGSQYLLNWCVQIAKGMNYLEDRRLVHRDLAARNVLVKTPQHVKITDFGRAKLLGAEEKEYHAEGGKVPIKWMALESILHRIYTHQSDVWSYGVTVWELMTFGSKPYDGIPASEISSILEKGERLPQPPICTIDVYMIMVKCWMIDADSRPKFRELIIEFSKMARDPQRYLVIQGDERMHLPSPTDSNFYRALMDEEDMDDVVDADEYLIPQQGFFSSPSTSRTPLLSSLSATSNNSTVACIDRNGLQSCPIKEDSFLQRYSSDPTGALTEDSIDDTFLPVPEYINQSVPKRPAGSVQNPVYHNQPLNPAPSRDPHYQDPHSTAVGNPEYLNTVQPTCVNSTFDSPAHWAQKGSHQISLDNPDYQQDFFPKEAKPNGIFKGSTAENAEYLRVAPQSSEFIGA
Sequence of EGFR-WT (P00533 668-1210): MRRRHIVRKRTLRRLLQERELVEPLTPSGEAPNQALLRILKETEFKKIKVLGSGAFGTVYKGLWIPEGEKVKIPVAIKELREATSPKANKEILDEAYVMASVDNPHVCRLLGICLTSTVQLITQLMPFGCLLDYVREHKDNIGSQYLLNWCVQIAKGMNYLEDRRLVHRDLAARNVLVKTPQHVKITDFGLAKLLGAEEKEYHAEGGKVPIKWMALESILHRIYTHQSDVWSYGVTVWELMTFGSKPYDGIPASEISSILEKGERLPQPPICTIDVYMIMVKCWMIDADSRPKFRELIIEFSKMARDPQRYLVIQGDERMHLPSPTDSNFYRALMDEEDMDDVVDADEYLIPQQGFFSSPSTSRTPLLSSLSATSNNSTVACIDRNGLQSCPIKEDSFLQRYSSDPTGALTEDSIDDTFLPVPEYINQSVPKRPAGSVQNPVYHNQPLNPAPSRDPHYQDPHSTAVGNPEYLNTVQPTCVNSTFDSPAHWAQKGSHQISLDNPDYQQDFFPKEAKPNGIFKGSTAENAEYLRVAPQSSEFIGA
T1 sequence (Q06187 whole entry): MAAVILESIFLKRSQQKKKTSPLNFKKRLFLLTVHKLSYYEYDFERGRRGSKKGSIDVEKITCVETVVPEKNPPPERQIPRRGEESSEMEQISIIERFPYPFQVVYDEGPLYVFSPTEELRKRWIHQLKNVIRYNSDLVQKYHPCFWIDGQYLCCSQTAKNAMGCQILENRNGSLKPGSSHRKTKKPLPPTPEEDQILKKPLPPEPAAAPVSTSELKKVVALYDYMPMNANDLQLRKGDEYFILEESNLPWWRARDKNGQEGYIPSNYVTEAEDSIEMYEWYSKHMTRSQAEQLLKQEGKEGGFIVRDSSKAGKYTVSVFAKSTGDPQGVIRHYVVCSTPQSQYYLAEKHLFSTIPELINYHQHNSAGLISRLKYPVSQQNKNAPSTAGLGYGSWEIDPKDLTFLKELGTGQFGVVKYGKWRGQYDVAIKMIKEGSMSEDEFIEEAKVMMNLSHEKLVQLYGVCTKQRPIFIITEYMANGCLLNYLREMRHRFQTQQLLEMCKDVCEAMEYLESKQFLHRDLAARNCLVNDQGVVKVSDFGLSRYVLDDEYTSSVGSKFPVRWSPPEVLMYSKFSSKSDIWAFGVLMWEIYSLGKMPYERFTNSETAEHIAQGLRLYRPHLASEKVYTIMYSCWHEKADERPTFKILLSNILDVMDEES
Sequence of ITK (Q08881 whole entry): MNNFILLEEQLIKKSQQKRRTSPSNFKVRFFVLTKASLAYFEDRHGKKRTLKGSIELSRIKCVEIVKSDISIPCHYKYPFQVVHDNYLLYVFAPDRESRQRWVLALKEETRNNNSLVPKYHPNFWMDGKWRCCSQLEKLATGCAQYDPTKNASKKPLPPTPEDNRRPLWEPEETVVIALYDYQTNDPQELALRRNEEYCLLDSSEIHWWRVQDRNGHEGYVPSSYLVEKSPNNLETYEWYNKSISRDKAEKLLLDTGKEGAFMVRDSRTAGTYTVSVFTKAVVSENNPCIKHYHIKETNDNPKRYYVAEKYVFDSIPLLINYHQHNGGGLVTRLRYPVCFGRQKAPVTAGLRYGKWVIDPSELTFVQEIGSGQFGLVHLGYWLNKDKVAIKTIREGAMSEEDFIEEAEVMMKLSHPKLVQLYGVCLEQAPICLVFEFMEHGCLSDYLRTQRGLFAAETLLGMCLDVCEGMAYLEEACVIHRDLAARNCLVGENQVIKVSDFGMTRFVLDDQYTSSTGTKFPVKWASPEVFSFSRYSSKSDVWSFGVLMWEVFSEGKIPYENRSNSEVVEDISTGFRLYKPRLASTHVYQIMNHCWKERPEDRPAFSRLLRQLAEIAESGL
Sequence of BMX (P51813 whole entry): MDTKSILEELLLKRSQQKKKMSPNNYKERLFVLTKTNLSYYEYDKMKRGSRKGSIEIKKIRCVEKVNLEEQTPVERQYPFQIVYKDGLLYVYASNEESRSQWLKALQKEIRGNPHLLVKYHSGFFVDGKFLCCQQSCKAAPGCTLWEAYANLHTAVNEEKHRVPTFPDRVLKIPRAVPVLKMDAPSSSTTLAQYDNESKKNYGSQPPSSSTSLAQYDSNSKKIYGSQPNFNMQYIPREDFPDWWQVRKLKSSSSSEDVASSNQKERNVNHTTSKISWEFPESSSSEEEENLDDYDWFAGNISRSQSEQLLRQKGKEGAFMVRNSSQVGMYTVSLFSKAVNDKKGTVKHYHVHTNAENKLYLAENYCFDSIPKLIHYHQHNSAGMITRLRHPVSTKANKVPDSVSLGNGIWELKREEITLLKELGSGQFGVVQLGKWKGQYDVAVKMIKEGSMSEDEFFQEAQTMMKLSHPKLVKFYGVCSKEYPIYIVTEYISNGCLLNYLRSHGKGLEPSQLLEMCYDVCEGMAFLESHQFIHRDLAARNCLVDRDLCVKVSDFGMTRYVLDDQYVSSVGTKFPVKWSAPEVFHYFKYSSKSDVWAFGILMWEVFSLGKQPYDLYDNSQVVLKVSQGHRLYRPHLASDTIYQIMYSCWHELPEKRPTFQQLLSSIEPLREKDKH

Row | SMILES | IC50 (ITK) | IC50 (EGFR-WT) | IC50 (BTK [1]) | IC50 (BTK [2]) | IC50 (BMX) | BTK Inhibition Type (BTK [3]) | IC50 (EGFR-T790M/L858R) | IC50 (EGFR-WT; [4]) | IC50 (EGFR-T790M/L858R; [5])
2 | C=CC(=O)Nc1cccc(Nc2ncc(C)c(Nc3ccc(Oc4ccccc4)cc3)n2)c1 [Compound I-23, N-(3-(5-methyl-4-(4-phenoxyphenylamino)pyrimidin-2-ylamino)phenyl)acrylamide] | – | 100 to 1000 nM | – | – | – | – | 10 to 100 nM | – | –
3 | C=CC(=O)Nc1cccc(Nc2nc(Nc3ccccc3)ncc2F)c1 [Compound I-28, N-(3-(5-fluoro-2-(phenylamino)pyrimidin-4-ylamino)phenyl)acrylamide] | 10 to 100 nM | 10 to 100 nM | < 10 nM | – | < 10 nM | irreversible | – | – | –
4 | C=CC(=O)Nc1ccc(Nc2nc(Nc3ccccc3)ncc2C)cc1 [Compound I-39, N-(4-(5-methyl-2-(phenylamino)pyrimidin-4-ylamino)phenyl) acrylamide] | 100 to 1000 nM | – | < 10 nM | 10 to 100 nM | < 10 nM | – | – | 1000 to 10000 nM | 100 to 1000 nM
5 | C=CC(=O)Nc1cccc(Nc2nc(Nc3cccc(S(N)(=O)=O)c3)ncc2C)c1 [Compound I-33, N-(3-(5-methyl-2-(3-sulfamoylphenylamino)pyrimidin-4-ylamino)phenyl)acrylamide] | < 10 nM | – | < 10 nM | < 10 nM | < 10 nM | – | – | < 10 nM | –
6 | C=CC(=O)Nc1cccc(Nc2nc(Nc3cccc(OC)c3)ncc2C(F)(F)F)c1 [Compound I-242, N-(3-(5-trifluoromethyl-2-(3-methoxyphenylamino)pyrimidin-4-ylamino)phenyl)acrylamide] | < 10 nM | 10 to 100 nM | < 10 nM | < 10 nM | – | irreversible | – | – | –
7 | C=CC(=O)Nc1ccc(C)c(Nc2ncc(C)c(Nc3cccc(C)c3)n2)c1 [Compound I-8, N-(4-methyl-3-(5-methyl-4-(m-tolylamino)pyrimidin-2-ylamino)phenyl)acrylamide] | – | – | < 10 nM | 100 to 1000 nM | – | – | – | < 10 nM | < 10 nM
8 | C=CC(=O)Nc1cccc(Oc2nc(Nc3ccc(OCCOC)cc3)ncc2C2CC2)c1 [Compound I-131, N-(3-(5-cyclopropyl-2-(4-(2-methoxyethoxy)phenylamino)pyrimidin-4-yloxy)phenyl)acrylamide] | < 10 nM | – | < 10 nM | < 10 nM | < 10 nM | – | – | < 10 nM | –
9 | C=CC(=O)Nc1cccc(Nc2nccc(Nc3cccc(C)c3)n2)c1 [Compound I-1, N-(3-(4-(m-tolylamino)pyrimidin-2-ylamino)phenyl)acrylamide] | 100 to 1000 nM | – | < 10 nM | – | – | – | – | < 10 nM | < 10 nM
10 | C=CC(=O)Nc1cccc(Nc2nc(Nc3cccc(OCCCNC(=O)OC(C)(C)C)c3)ncc2C)c1 [Compound I-45, tert-butyl 3-(3-(4-(3-acrylamidophenylamino)-5-methylpyrimidin-2-ylamino)phenoxy)propylcarbamate] | 10 to 100 nM | 100 to 1000 nM | < 10 nM | < 10 nM | < 10 nM | – | – | – | –
11 | C=CC(=O)N1CCCC(Nc2nc(Nc3ccccc3)ncc2C)C1 (stereo not shown) [Compound I-27] | 10 to 100 nM | 10 to 100 nM | < 10 nM | 10 to 100 nM | < 10 nM | – | – | – | –
12 | C=CC(=O)N1CCOc2ccc(Nc3nc(Nc4ccc5c(c4)CC(=O)N5)ncc3C(C)=O)cc21 [Compound I-129, 5-[5-Acetyl-4-(4-acryloyl-3,4-dihydro-2H-benzo[1,4]oxazin-6-ylamino)-pyrimidin-2-ylamino]-1,3-dihydro-indol-2-one] | < 10 nM | 10 to 100 nM | < 10 nM | < 10 nM | < 10 nM | – | – | – | –
13 | C=CC(=O)N1CCC[C@@H](Nc2nc(Nc3cccc(OCCN4CCOCC4)c3)ncc2F)C1 [Compound I-135, (R)-1-(3-(5-fluoro-2-(3-(2-morpholinoethoxy)phenylamino)pyrimidin-4-ylamino)piperidin-1-yl)prop-2-en-1-one] | 10 to 100 nM | 10 to 100 nM | < 10 nM | 10 to 100 nM | < 10 nM | – | – | – | –

Now from value to compound:

Row | IC50 (ITK) | IC50 (EGFR-WT) | IC50 (BTK [1]) | IC50 (BTK [2]) | IC50 (BMX) | BTK Inhibition Type (BTK [3]) | IC50 (EGFR-T790M/L858R) | IC50 (EGFR-WT; [4]) | IC50 (EGFR-T790M/L858R; [5]) | SMILES
14 | 10 to 100 nM | 10 to 100 nM | < 10 nM | 10 to 100 nM | < 10 nM | – | – | – | – | C=CC(=O)Nc1cccc(Nc2nc(Nc3ccc(OC)c(OC)c3)ncc2F)c1 [Compound I-134, 4-(3acrylamidophenylamino)-5-fluoro-2-(3,4-dimethoxyphenylamino)-pyrimidine]
15 | < 10 nM | – | < 10 nM | < 10 nM | – | irreversible | – | – | – | C=CC(=O)Nc1cccc(Nc2nc(Nc3ccccc3)ncc2C(N)=O)c1 [Compound I-230, 4-(3-acrylamidophenylamino)-2-(phenylamino)pyrimidine-5-carboxamide]
16 | 10 to 100 nM | 10 to 100 nM | < 10 nM | < 10 nM | – | irreversible | – | – | – | C=CC(=O)Nc1cccc(Oc2nc(Nc3ccccc3)ncc2F)c1 [Compound I-228, N-(3-(5-fluoro-2-(phenylamino)pyrimidin-4-yloxy)phenyl)acrylamide]
17 | 100 to 1000 nM | 100 to 1000 nM | < 10 nM | 10 to 100 nM | < 10 nM | – | – | – | – | C=CC(=O)Nc1cccc(Nc2nc(Nc3cc(OC)c(OC)c(OC)c3)ncc2F)c1 [Compound I-133, 4-(3-acrylamidophenylamino)-5-fluoro-2-(3,4,5-trimethoxyphenylamino)-pyrimidine]
18 | < 10 nM | – | < 10 nM | 10 to 100 nM | < 10 nM | – | – | – | – | C=CC(=O)N1CCc2cc(Nc3nc(Nc4cccc(S(N)(=O)=O)c4)ncc3C)ccc2C1 [Compound I-40, 3-(4-(2-acryloyl-1,2,3,4-tetrahydroisoquinolin-6-ylamino)-5-methylpyrimidin-2-ylamino)benzenesulfonamide]
19 | 10 to 100 nM | 10 to 100 nM | < 10 nM | < 10 nM | – | irreversible | – | – | – | C=CC(=O)Nc1cccc(Nc2nc(Nc3ccc(OC)nc3)ncc2F)c1 [Compound I-243, N-(3-(5-fluoro-2-(6-methoxypyridin-3-ylamino)pyrimidin-4-ylamino)phenyl)acrylamide]
20 | 10 to 100 nM | 10 to 100 nM | < 10 nM | 10 to 100 nM | < 10 nM | – | – | – | – | C=CC(=O)Nc1cccc(Nc2nc(Nc3ccc4c(c3)N(C)CCO4)ncc2F)c1 [Compound I-126, N-(3-(2-(4-methyl-2,3-dihydrobenzo[1,4]oxazin-6-yl)amino-5-fluoropyrimidin-4-ylamino)phenyl)acrylamide]
21 | < 10 nM | – | < 10 nM | < 10 nM | < 10 nM | – | – | < 10 nM | – | C=CC(=O)Nc1cccc(Nc2nc(Nc3ccccc3)ncc2C(F)(F)F)c1 [Compound I-245, N-(3-(5-trifluoromethyl-2-(phenylamino)pyrimidin-4-ylamino)phenyl)acrylamide]
22 | – | – | < 10 nM | – | – | – | – | < 10 nM | < 10 nM | C=CC(=O)Nc1cccc(Nc2ncc(C)c(Nc3ccccc3)n2)c1 [Compound I-5, N-(3-(5-methyl-4-(phenylamino)pyrimidin-2-ylamino)phenyl) acrylamide]

From patent publication US9987276B2 (Celgene CAR LLC, priority 2008, dated 2018)
